Laboratory results: patent publication US20080279961A1, “TELOMERE TARGETING AGENTS AS STEM CELLS DIRECTED TREATMENTS” (priority 2007, published 2008)
Entries after “also recorded” stand apart in the source; their conditions may differ.

Key:
MCF-7 cells = test: human tumor stem cell assay (HTCA)/clonogenic assay; format: cell-based
Protocol: (§1) In human tumor stem cell assay (HTCA)/clonogenic assay, single cell suspensions from in vivo studies above were washed in medium and passed through sieves and the resulting single cell suspensions seeded into soft agar (n=3 tumors per group) as described by us before (Fiebig et al., 2004). Single cell suspensions of cell lines were prepared by trypsinization from cells growing as monolayers on plastic. Briefly, 5,000 (HEK293T cells), 10,000 (PC3, MCF-7 and UXF1138L cells) or 50,000 (UXF1138L tumor tissue) vital cells were added to 0.2 ml Iscove's medium/20% fetal bovine serum/0.05% gentamycin containing 0.4% agar and plated on top of a base layer consisting of 0.2 ml medium with 0.75% agar. The next day, the agar layers were fed with Isocve's medium and cultures incubated at 37° C., 7% CO2 for approximately 11 days. Vital colonies were stained with 2-(4-iodophenyl)-3-(4-nitrophenyl)-5-phenyltetrazolium chloride (1 mg/ml) 24 hrs before evaluation, and colonies >70 μm were counted with an automated image analysis system (Omincon FAS IV, BIOSYS GmbH, Karben, Germany). Drug effect was assessed as growth inhibitory concentrations 50 and 70% (IC50, IC70). Methylcellulose was used to grow cord blood stem cells instead of soft agar. The seeding density was 20,000 cells/well. Stem cell growth factor supplemented and optimized methylcellulose (Methocult H4434) was purchased from Stem Cell Technologies (Vancouver, CA). Methylcellulose lacking growth factors was used as negative growth control. Statistical significance between treatment groups was evaluated by using the Student T-test.
(§2) The growth inhibitory activity of RHPS4 in human bulk tumor cells have been compared, by MTT assay, against RHPS4 activity in tumor cells grown as colonies in the clonogenic assay, also termed the human tumor stem cell assay (HTCA) (FIG. 2A-B). HEK293T human embryonic kidney cells grown in the HTCA, and cord blood cells cultured in methylcellulose were also treated with RHPS4 (FIG. 2C). The MTT assay is a 5 day proliferation test measuring effects on a morphologically heterogeneous, differentiated cell population (bulk cells), whereas the HTCA and methylcellulose assays are longer term (10-15 day) tests in which only a very small fraction of a bulk culture (˜0.1-1%) will grow as colonies. Cells growing anchorage-independently as colonies in a semi-solid matrix are considered to be pluripotent stem cells (Hamburger & Salmon, 1977; Locke et al., 2005; Fiebig et al. 2004). […] Similar observations were made with the breast cancer cell line MCF-7 (shown in FIG. 2B, HTCA IC50=0.04 microM; bulk cell IC50=2 microM).

PC3 cells = test: as above; format: cell-based; settings: PC3 colonies; read-out: IC50 colony growth in the HTCA
Protocol: as §1, §2

UXF1138L cells = test: as above; format: cell-based; settings: UXF1138L colonies; read-out: IC50 colony growth in the HTCA
Protocol: as §1, §2

[1] = system: HEK293T human embryonic kidney cells; test: HTCA colony assay on normal embryonic kidney cells; format: cell-based
Protocol: as §1
To assess RHPS4 effects on normal stem cells, the human embryonic kidney cell line HEK293T was exposed to drug in the MTT and HTCA assays, and tested RHPS4 effects on colony forming units of the mononuclear cell fraction of human cord blood in methyl cellulose (FIG. 2C). The cord blood colony assay was performed with and without colony stimulating growth factors, only methylcellulose containing growth factors grew colonies. […] Additionally, in normal cell types as compared to tumor cells, low and pharmacodynamically relevant concentrations of RHPS4 (0.01 to 1 microM) did induce colony formation (FIG. 2C). To assure that the induction of colony growth by RHPS4 in normal stem cells is reproducible, cord blood from three different individuals and HEK293T cells from different passages were used. Data shown in FIG. 2C represent the mean and standard deviation from three independent experiments. […] However, the plating efficiency (actual number of colonies growing per total number of cells seeded) varied among the experiments and therefore the results are shown as % of control growth. E.g. HEK293T control colony growth ranged from a mean number of 54 to 463 colonies per well, but the least percentage (cut-off level) of growth induction by RHPS4 observed in either, the individual HEK293T or the cord blood experiments, was 150%. […] Instead, at RHPS4 levels that induced colony growth 2.4-fold (1 mircoM), bulk cell growth was inhibited to 60% of control (FIG. 2C).

UXF1138L tumor tissue = test: HTCA/clonogenic growth of in vivo treated xenograft tissue; parameters: species or system nude mice; settings: for HTCA growth [%]: control set 100%
Protocol: Upon termination of the experiment, which was when tumors reached a volume of 1.5 cm in diameter (day 28), RHPS4 treated tumor tissue and control tumors were excised, minced and digested using a mixture of collagenase (123 U/ml), DNase (375 U/ml), and hyaluronidase (290 U/ml) in RPMI 1640 medium at 37° C. for 3 hrs. All enzymes were purchased from Roche, Indianapolis Ind.). Primary cultures as well as clonogenic growth assays were prepared from the resulting single cell suspensions. Primary cultures were used for analysis of telomere length. In addition, RHPS4 treated tumors (5 mg/kg/d) and control were propagated into new animals for up to three times. The control mouse group was always derived from untreated tumor fragments, but from the same initial passage as were the RHPS4 treated tumors (FIG. 1B).
as §1

HEK293T = test: cytokine secretion into clonogenic assay supernatant (ELISA); format: cell-based, human; settings: HEK293T normal stem cell culture supernatant
Protocol: (§3) For the monkey bone marrow and the human cord blood, methylcellulose from StemCell Technologies (Vancouver) was used to grow the stem cells as colonies. […] Cancer tissues are composed of various cell types, tumor cells, stromal fibroblasts, blood vessels, inflammatory cells, and adipocytes, all of which can carry over into single cell suspensions that are seeded into soft agar after tissue digestion. To examine whether tumor stem cells secrete cytokines that support their growth of enforce differentiation, the expression of 6 cytokines found in the supernatant of clonogenic assays was evaluated. Ultrasensitive immunoassay procedures based on the ELISA (enzyme linked immuno absorbent assay) technology were employed for the measurement of VEGF, TNF-alpha, GMCSF, GCSF IL4 and IL6. The assays were performed by the Cytokine Laboratory in the VA Hospital at the University of Maryland Baltimore and data provided as optical density readouts that were converted relative to a standard into pg/ml absolute cytokine values. The IL4 and 6 measurements were all negative; however VEGF, TNF-alpha, GMCSF and GCSF yielded interesting and differential results between tumor and normal stem cells. While cytokine levels decreased after RHPS4 treatment in tumor stem cell assays, they increased in normal stem cell cultures.

MCF-7 = test: as above; format: cell-based, human; settings: MCF-7 tumor stem cell assay supernatant
Protocol: as §3

COS(=O)(=O)[O-].Cc1cc2c3c([n+](C)c4ccc(F)cc4c3c1)-c1cc(F)ccc1N2C [RHPS4, 3,11-difluoro-6,8,13-trimethyl-8H-quino[4,3,2-kl]acridinium methosulfate]
activity in colonies (HTCA) versus whole cell populations (MCF-7 cells; MCF-7): two log-fold | IC50 (MCF-7 cells; MCF-7 colonies, read-out: IC50 colony growth in the HTCA): 40 nM | IC50 (PC3 cells): 30 nM | IC50 (UXF1138L cells): 20 nM | concentrations that markedly inhibited tumor colony forming units and induced cord blood and HEK293T colony growth [1]: 0.1-1 mircoM | sensitivity of cord blood and HEK293T colony forming units versus tumor cell colonies [1]: over a log-fold less sensitive | stimulation of growth, number of colonies compared to vehicle ([1]; 0.1 and 1 mircoM RHPS4, HEK293T): doubling to tripling the number of colonies | induction of colony growth ([1]; 1 mircoM RHPS4, HEK293T): 2.4 fold | drug concentration at which cell kill of normal stem cells was seen ([1]; HEK293T colony forming units): ~10 mircoM | concentrations inhibiting normal colony formation above those inhibiting tumor cell colony formation ([1]; human embryonic kidney and cord blood vs tumor cells): over 25 fold | RHPS4 concentrations that inhibited colony formation ([1]; human embryonic kidney cells): > 1 mircoM | least percentage (cut-off level) of growth induction ([1]; individual HEK293T experiments, % of control growth): ≥ 150% | inhibition of colony forming units in the same tumor tissues (UXF1138L tumor tissue; Passage 3): 54%±6.6 | HTCA growth [%] (UXF1138L tumor tissue; Passage #1): 83 ± 2.3% | HTCA growth [%] (UXF1138L tumor tissue; Passage #2): 93 ± 2.3% | HTCA growth [%] (UXF1138L tumor tissue; Passage #3): 54.5 ± 6.6% | HTCA growth [%] (UXF1138L tumor tissue; Passage #4): 44 ± 6.4% | clonogenicity of RHPS4 treated tumor tissue in soft agar tumor stem cell assay (UXF1138L tumor tissue; passages 1-4): marked reduction in clonogenicity | secretion of stem cell associated cytokines (HEK293T): increased; also recorded: induction in cytokine secretion, particularly VEGF | secretion of stem cell associated cytokines (MCF-7): decreased; also recorded: inhibition of tumor necrosis factor alpha, VEGF, GMCSF and GCSF
